Key:
Assay type in all cases: cell-based, human
[1] = test system: CD20, CD20/CD5 and CD3/CD5 lymphocyte subsets; experiment: Flowcytometric phenotype of lymphocyte subsets in SAC + rIL-2 cultures; settings: for CD20/CD5 subpopulations: end of 5 and 10 day culture periods, drug dose dependent, data not shown; for effect on relative percent of CD20, CD20/CD5 and CD3/CD5 staining cells: 5 day SAC + rIL-2 culture, FIG. 4; for CD20, % Viable (% Total) / CD20/5, % Viable (% Total): 5 day culture, 1.0 μg/ml FLP + SAC/rIL-2 (50 μ/ml)
Procedure: Approximately 5×10^5−1×10^6 PBMC, enriched T, or B lymphocytes were cultured in 1 ml of S-10 in Falcon 10×75 mm capped polypropylene tissue culture tubes (Falcon #2063) for the appropriate times at 37° C. in a humidified 5% CO2/air atmosphere. Recombinant IL-2 (rIL-2) was used at 50 U/ml and SAC was at a final concentration of {fraction (1/60,000)}. The mitogens phytohemagglutinin (PHA-P) (Pharmacia, #27-3707-01, Uppsala, Sweden) and pokeweed mitogen (PWM, Pharmacia, #27-3702-01) were used at 5 μg/ml and 10 μg/ml, respectively.
Cells were washed once in citrate buffered saline (C-BSS) and 10^5-10^6 cells per sample were aliquoted for staining. For direct immunofluorescence, […] of either FITC- or PC-conjugated CD-specific mouse monoclonal antibody (Becton Dickinson, San Jose, Calif.) were added to cells in […] of C-BSS and incubated at RT for 30 min. The samples were then washed once in 2 ml C-BSS, resuspended in 0.5 ml C-BSS and acquired on a B/D FACScan Flowcytometer using either Simulset or Lysis II software. During analysis of data files, lymphocytes were discriminated from monocytes and dead cells on the basis of their forward light scatter (FCS) properties and high positivity with anti-CD45 and anti-CD14 (leucogate).
In FIG. 4, at the end of the culture period, the cells were washed, fixed with 1% formalin/PBS, and stained with mouse monoclonals anti-CD20 (PE), anti-CD3 (PE), and anti-CD5 (FITC). The stained samples were analyzed on a FACScan flowcytometer using LYSYS II software. Viable cells were gated and results are expressed as percent of total viable events acquired.
Experiments were conducted that sampled supernatants and cells at 5 and 10 days culture with various amounts of drug.

[2] = test system: IgM production; experiment: Cumulative IgM production in SAC + rIL-2 cultures, EIA; settings: for accumulation of IgM: 5 and 10 day SAC rIL-2 cultures, preliminary studies
Procedure: In FIG. 5, peripheral blood mononuclear cells (PBMC) enriched for B lymphocytes (BC89; 60% CD19, 59% CD20, 8% CD3) were continuously cultured at 5×10^5/ml and stimulated with Staphylococcus aureus Cowan I (SAC) plus interleukin 2 (IL-2) (50 U/ml) in the presence of 1.0 μg/ml of FLP. Recombinant IL-6 was added to 50 U/ml. After the culture period, the supernatants were harvested and assayed for huIgM by EIA. Results shown are from 1 representative experiment of 5 different experiments conducted with 5 different sources of leukocyte preparations. […]
(§1) In FIG. 7, peripheral blood mononuclear cells (PBMC) enriched for B lymphocytes (BC92; 35% CD19, 33% CD20, 35% CD3) were continuously cultured for 5 days in either medium alone, Staphylococcus aureus Cowan I (SAC) plus interleukin 2 (IL-2) (50 U/ml), or SAC plus IL-2 in the presence of various concentrations of FLP or 2-chlorodeoxyadenosine (2CDA). After 5 days of culture, the supernatants were harvested and serial dilutions of supernatant assayed for huIgM and huIgG by EIA. The presence of IgM rheumatoid factor (IgM-RF) was determined by EIA using the Vectastain Biotin-Streptavidin amplification system. Results are reported as O.D. 405 nm units. […] The results shown are from 1 representative experiment of 4 separate experiments conducted with 4 different sources of packed leukocytes.
(§2) In FIG. 8, peripheral blood mononuclear cells (PBMC) enriched for B lymphocytes (BC92, 35% CD19, 33% CD20, 35% CD3) were continuously cultured for 10 days in either medium alone, Staphylococcus aureus Cowan I (SAC) plus interleukin 2 (IL-2) (50 U/ml), or SAC plus IL-2 in the presence of various concentrations of FLP or 2CDA. At the end of the culture period, the supernatants were harvested and serial dilutions assayed for huIgM, huIgG, and IgM-RF by EIA. The cells were phenotyped by flowcytometry. Results are reported as O.D. 405 nm units. […] The results shown are from 1 experiment representative of 3 separate experiments conducted with 3 different sources of packed leukocytes.
(§3) In FIG. 9, peripheral blood mononuclear cells (PBMC) (BC93; 22% CD19, 20% CD20, 78% CD3) were continuously cultured for 5 days in either medium alone, Staphylococcus aureus Cowan I (SAC) plus interleukin 2 (IL-2) (50 U/ml) or 20% T cell conditioned medium (Tcm) in the presence of various concentrations of FLP. At the end of the 5 day culture period, the supernatants were harvested and serial dilutions assayed for huIgM, huIgG, and IgM-RF by EIA. The results are reported as O.D. 405 nm units. […] The results shown are from one representative experiment.
Immulon-2 (Dynatek Laboratories, #011-010-3450, Chantilly, Va.) flat-bottom 96 well microtiter plates were coated with 100 μl/well of a 2 μg/ml solution of goat F(ab′)2 anti-HuIgM (μ chain, CALTAG #H15100, So. San Francisco, Calif.) or goat F(ab′)2 anti-HuIgG (Fc sp., CALTAG #H10100) in 0.1 M sodium carbonate buffer, pH 9.6 overnight at 4° C. Uncoated wells were incubated with the carbonate buffer alone. The plates were rinsed and then incubated with 100 μl/well of 0.1% BSA/PBS for 1 hr at RT.

[3] = test system: IgM-RF production; experiment: Cumulative IgM-RF production in SAC + rIL-2 cultures, EIA; settings: for effect on measurable IgM-RF: FIG. 7C; for accumulation of IgM-RF: 5 and 10 day SAC rIL-2 cultures, preliminary studies
Source text: as §1, §2, §3
The procedure to determine amounts of IgM-RF in culture supernatants was a modification of the methodology described above. Briefly, plates were coated with 100 μl/well of a 2.4 μg/ml solution of human IgG Fc fragments (Jackson ImmunoResearch, Chrompure #009-000-008) in 0.1 M sodium carbonate, pH 9.6 overnight at 4° C. The wells were blocked with 0.1% BSA/PBS for 1 hr at RT, and then serial dilutions of culture supernatant were cultured at 100 μl/well for 18-48 hrs at RT. A Vectastain Human IgM ABC-AP kit (Vector Laboratories, #AK-5009, Burlingame, Calif.) was used to develop the plates. […] Results are reported as O.D. units at 405 nm.

[4] = one microgram per ml, 5 days, FIG. 7A

## Nc1nc(Cl)nc2c1ncn2[C@H]1C[C@H](O)[C@@H](CO)O1 [2CDA, 2-chlorodeoxyadenosine]
[1]
  CD20/CD5 subpopulations: decreased
[2]
  accumulation of IgM: dose-related decrease
[2]; [4]
  effect on IgM production: block
[2]; one microgram per ml, 10 days
  effect on IgM accumulation: block the accumulation
[3]; 1 μg/ml, 5 days
  effect on measurable IgM-RF: less effect
[3]; 1 μg/ml, 10 days
  effect on IgM-RF accumulation compared with FLP: characteristics similar to FLP
[3]
  accumulation of IgM-RF: dose-related decrease

## Nc1nc(F)nc2c1ncn2[C@@H]1O[C@H](COP(=O)(O)O)[C@@H](O)[C@@H]1O [FLP, fludarabine-5′-monophosphate]
[1]; 0.1 μg/ml
  effect on relative percent of CD20, CD20/CD5 and CD3/CD5 staining cells: minimal effect
[1]; 0.5 μg to 5.0 μg/ml
  effect on relative percent of CD20, CD20/CD5 and CD3/CD5 staining cells: dose-dependent decrease
[1]; IL-6 +
  CD20, % Viable (% Total): 60%
  CD20/5, % Viable (% Total): 1.9%
[1]; IL-6 −
  CD20, % Viable (% Total): 64%
  CD20/5, % Viable (% Total): 1.8%
[1]
  CD20/CD5 subpopulations: decreased
[2]; 0.1 μg/ml, 10 days, FIG. 8A
  effect on IgM accumulation: minimal effect
[2]; 1 μg, 10 days, FIG. 8A
  reduction of IgM accumulation: 80%
[2]; 1.0 μg/ml, 5 day cultures, FIG. 5
  detectable IgM in supernatants: background levels
[2]; 5 μg, 10 days, FIG. 8A
  reduction of IgM accumulation: 98%
[2]; 5 μg/ml, 5 days, FIG. 7A
  effect on IgM accumulation: block any measurable IgM accumulation
[2]; 0.1 and 0.5 μg/ml, PBMC, 5 days, cultures containing rIL-2 or 20% T cell conditioned medium, FIG. 9A
  effect on IgM accumulation: reduce
[2]
  accumulation of IgM: dose-related decrease
[2]; one hundred nanograms per ml, 5 days, FIG. 7A
  effect on IgM production: minimal effect
[2]; [4]
  effect on IgM production: intermediate effect
[3]; 0.1 μg/ml, 10 days, FIG. 8C
  IgM-RF production: 50 % of control
[3]; 1 μg/ml, 5 days
  effect on measurable IgM-RF: reduce the measurable IgM-RF
[3]; 5 μg, 10 days, FIG. 8C
  level of measurable IgM-RF: below the medium control levels
[3]; 5 μg/ml, 5 days
  effect on measurable IgM-RF: reduce the measurable IgM-RF
[3]; 0.1 and 0.5 μg/ml, PBMC, 5 days, cultures containing rIL-2 or 20% T cell conditioned medium, FIG. 9C
  effect on IgM-RF accumulation: reduce
[3]
  accumulation of IgM-RF: dose-related decrease

Reference: US6337333B1, “Method of treating autoimmune disease with fludarabine-5′-monophosphate” (priority 1992, dated 2002)
